Source: US5756505A, “N-acylpiperazine derivative, antibacterial drug and anti-ulcer drug” (Shiseido Co., Ltd., priority 1995, dated 1998)

Legend:
mice = test: AT: Single Dose Toxicity Pretest; assay type: in vivo, mouse (male Slc:ICR)
Procedure: AT: Single Dose Toxicity Pretest
Male Slc:ICR mice (5-week-old) were used. Each group has 3 to 5 mice and each mouse was fasted, but allowed free access to water, for 4 to 5 hours from 9 a.m. in the test day. Then, 2,000 mg/10 ml/kg of the sample compound dissolved or suspended in an aqueous solution of 0.5% sodium carboxymethylcellulose were orally administered thereto. To a control, only the vehicle was administered. […] The body weight was measured before and after the fasting as well as at the same time everyday. The dead animals were immediately subjected to autopsy and their organs were observed macroscopically. Also, the living animals were sacrificed with ether or carbon dioxide one week after the administration and then their organs were observed macroscopically.
The toxicity at the single dose of 2,000 mg/kg of the sample compound was expressed as being classified into 5 levels.
5: Mortality rate is 0%; no toxicity is found at all both in behavior and organs.
4: Mortality rate is 0%; while no toxicity is found in organs, slight toxicity is observed in behavior and body weight increase.
3: While there is a dead animal (though not all the animals are dead), no toxicity is found in organs.
2: Regardless of whether there is a dead animal or not, toxicity is found in organs.
1: All the animals are dead.

[1] = Tests for Safety (PD, AT, MTT), overall statement
Source text: Based on the foregoing effect tests and safety tests, the anti-ulcer effect, antibacterial activity against HP, and safety of the example compounds of the present invention were studied.

Row | SMILES | AT: toxicity at single dose, level (mice; mouse, in vivo) | safety (in words) [1] | also measured
1 | CC(C)Cc1cc(C(=O)N2CCN(CC(C)C)CC2)ccc1OCc1ccccc1 [Example 16, 1-(4-benzyloxy-3-isobutylbenzoyl)-4-isobutylpiperazine] | 2 | – | –
2 | CC(C)Cc1cc(C(=O)N2CCN(CC(C)C)CC2)ccc1OCc1ccc(Cl)cc1 [Example 17, 1-[4-(4-chlorobenzyloxy)-3-isobutylbenzoyl]-4-isobutylpiperazine] | 2 | – | –
3 | CC(C)Cc1cc(CC(=O)N2CCN(CC(C)C)CC2)ccc1OCc1ccccc1 [Example 15, 1-(4-benzyloxy-3-isobutylphenylacetyl)-4-isobutylpiperazine] | – | – | AT: toxicity at single dose, level (mice; mouse, 2,000 mg/kg oral, one week): 2
4 | CC(C)Cc1cc(C(=O)N2CCN(CC(C)C)CC2)ccc1OCc1ccc(F)cc1 [Example 21, 1-[4-(4-fluorobenzyloxy)-3-isobutylbenzoyl]-4-isobutylpiperazine] | – | great improvement in safety | –
5 | CC(C)Cc1cc(C(=O)N2CCN(CC(C)C)CC2)ccc1OCc1ccc(F)cc1.Cl [Example 22, 1-[4-(4-fluorobenzyloxy)-3-isobutylbenzoyl]-4-isobutylpiperazine hydrochloride] | – | great improvement in safety | –
